Experimental data from US10597388B2, “Pyridazinone herbicides” (FMC CORPORATION, priority 2014, dated 2020).

Experiments:
Assay type in all cases: in vivo
[1] = system: chamomile (scentless chamomile, Matricaria inodora); assay: Test D controlled growth environment herbicide test, pre- and postemergence; details: Preemergence
Procedure, shortened: (§1)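 Rating is visual, 0–100 scale (100 = complete control), made against untreated plants 14–21 d after treatment in controlled growth conditions. Postemergence sprays went onto 1- to 4-leaf plants in peat medium; preemergence sprays onto silt loam after sowing; formulation included a surfactant.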

[2] = system: barley, winter (winter barley, Hordeum vulgare); assay: as above
Procedure, shortened: as §1

[3] = system: foxtail, green (green foxtail, Setaria viridis); assay: as above
Procedure, shortened: as §1

[4] = system: blackgrass (Alopecurus myosuroides); assay: as above
Procedure, shortened: as §1

[5] = system: deadnettle (henbit deadnettle, Lamium amplexicaule); assay: as above
Procedure, shortened: as §1

[6] = system: windgrass (Apera spica-venti); assay: as above
Procedure, shortened: as §1

[7] = system: lambsquarters (Chenopodium album); assay: as above
Procedure, shortened: as §1

[8] = system: field poppy (Papaver rhoeas); assay: as above
Procedure, shortened: as §1

[9] = system: mustard, wild (wild mustard, Sinapis arvensis); assay: as above
Procedure, shortened: as §1

[10] = system: radish, wild (wild radish, Raphanus raphanistrum); assay: as above
Procedure, shortened: as §1

[11] = system: waterhemp_RES1 (ALS & Triazine resistant common waterhemp, Amaranthus rudis); assay: Test E greenhouse herbicide test, postemergence
Procedure, shortened: (§2)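 Visual injury scored 0 (no effect) to 100 (complete control) versus untreated plants, 14 to 21 d after treatment in the greenhouse. Plants were treated postemergence at 1- to 4-leaf stage, 2–18 cm height, in peat-moss/vermiculite medium.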

[12] = system: waterhemp_RES2 (ALS & HPPD resistant common waterhemp, Amaranthus rudis); assay: Test E greenhouse herbicide test, postemergence
Procedure, shortened: as §2

[13] = 62 g ai/ha, scale 0 to 100 (0 no effect, 100 complete control)
[14] = 125 g ai/ha, scale 0 to 100 (0 no effect, 100 complete control)
[15] = Postemergence, 31 g ai/ha, scale 0 to 100 (0 no effect, 100 complete control)
[16] = Postemergence, 125 g ai/ha, visual rating on scale 0 (no effect) to 100 (complete control), 14 to 21 d
[17] = Postemergence, 250 g ai/ha, scale 0 to 100 (0 no effect, 100 complete control)
[18] = Preemergence, 62 g ai/ha, scale 0 to 100 (0 no effect, 100 complete control)
[19] = Preemergence, 125 g ai/ha, scale 0 to 100 (0 no effect, 100 complete control)
[20] = Preemergence, 250 g ai/ha, scale 0 to 100, 0 no effect, 100 complete control
[21] = postemergence, 62 g ai/ha, scale 0 to 100, 0 no effect, 100 complete control
[22] = 31 g ai/ha, visual, scale 0 no effect to 100 complete control
[23] = 250 g ai/ha, scale 0 to 100 (0 no effect, 100 complete control)

## CCc1sc2ccc(C)cc2c1-c1c(O)c(C)nn(C)c1=O [Compound 47]
[1]; 31 g ai/ha
  Plant response rating (scale of 0 to 100), Chamomile: 80
[1]; [13]
  Plant response rating, Chamomile: 80
[1]; [14]
  Plant response rating, Chamomile: 85
[1]; 250 g ai/ha, scale 0 to 100, 0 no effect, 100 complete control
  Plant response rating, Chamomile: 85
[2]; [15]
  Barley, Winter plant response rating: 10
[2]; [16]
  Plant response rating, Barley, Winter: 15
[2]; [17]
  Plant response rating, Barley, Winter: 15
[2]; Preemergence, 31 g ai/ha
  Plant response rating (scale of 0 to 100), Barley, Winter: 0
[2]; [18]
  Plant response rating, Barley, Winter: 0
[2]; [19]
  Plant response rating, Barley, Winter: 5
[2]; [20]
  Barley, Winter plant response rating: 10
[2]; [21]
  Plant response rating, Barley, Winter: 10
[3]; [15]
  Foxtail, Green plant response rating: 50
[3]; [16]
  Plant response rating, Foxtail, Green: 70
[3]; [17]
  Plant response rating, Foxtail, Green: 80
[3]; Preemergence, 31 g ai/ha
  Plant response rating (scale of 0 to 100), Foxtail, Green: 0
[3]; [18]
  Plant response rating, Foxtail, Green: 25
[3]; [19]
  Plant response rating, Foxtail, Green: 60
[3]; [20]
  Plant response rating, Foxtail, Green: 100
[3]; [21]
  Plant response rating, Foxtail, Green: 60
[4]; [15]
  Blackgrass plant response rating: 25
[4]; [16]
  Plant response rating, Blackgrass: 35
[4]; [17]
  Plant response rating, Blackgrass: 65
[4]; Preemergence, 31 g ai/ha
  Plant response rating (scale of 0 to 100), Blackgrass: 5
[4]; [18]
  Plant response rating, Blackgrass: 20
[4]; [19]
  Plant response rating, Blackgrass: 30
[4]; [20]
  Blackgrass plant response rating: 50
[4]; [21]
  Plant response rating, Blackgrass: 25
[5]; [15]
  Deadnettle plant response rating: 20
[5]; [16]
  Plant response rating, Deadnettle: 30
[5]; [17]
  Plant response rating, Deadnettle: 30
[5]; Preemergence, 31 g ai/ha
  Plant response rating (scale of 0 to 100), Deadnettle: 0
[5]; [18]
  Plant response rating, Deadnettle: 10
[5]; [19]
  Plant response rating, Deadnettle: 10
[5]; [20]
  Plant response rating, Deadnettle: 65
[5]; [21]
  Plant response rating, Deadnettle: 20
[6]; [15]
  Windgrass plant response rating: 10
[6]; [16]
  Plant response rating, Windgrass: 15
[6]; [17]
  Plant response rating, Windgrass: 15
[6]; Preemergence, 31 g ai/ha
  Plant response rating (scale of 0 to 100), Windgrass: 5
[6]; [18]
  Plant response rating, Windgrass: 5
[6]; [19]
  Plant response rating, Windgrass: 20
[6]; [20]
  Plant response rating, Windgrass: 75
[6]; [21]
  Plant response rating, Windgrass: 10
[7]; [15]
  Lambsquarters plant response rating: 45
[7]; [16]
  Plant response rating, Lambsquarters: 70
[7]; [17]
  Plant response rating, Lambsquarters: 70
[7]; Preemergence, 31 g ai/ha
  Plant response rating (scale of 0 to 100), Lambsquarters: 100
[7]; [18]
  Plant response rating, Lambsquarters: 100
[7]; [19]
  Plant response rating, Lambsquarters: 100
[7]; [20]
  Plant response rating, Lambsquarters: 100
[7]; [21]
  Plant response rating, Lambsquarters: 50
[8]; [15]
  Field Poppy plant response rating: 80
[8]; [16]
  Plant response rating, Field Poppy: 100
[8]; [17]
  Plant response rating, Field Poppy: 100
[8]; Preemergence, 31 g ai/ha
  Plant response rating (scale of 0 to 100), Field Poppy: 60
[8]; [18]
  Plant response rating, Field Poppy: 100
[8]; [19]
  Plant response rating, Field Poppy: 100
[8]; [20]
  Plant response rating, Field Poppy: 100
[8]; [21]
  Plant response rating, Field Poppy: 100
[9]; [15]
  Mustard, Wild plant response rating: 0
[9]; [16]
  Plant response rating, Mustard, Wild: 15
[9]; [17]
  Plant response rating, Mustard, Wild: 25
[9]; Preemergence, 31 g ai/ha
  Plant response rating (scale of 0 to 100), Mustard, Wild: 10
[9]; [18]
  Plant response rating, Mustard, Wild: 20
[9]; [19]
  Plant response rating, Mustard, Wild: 40
[9]; [20]
  Plant response rating, Mustard, Wild: 65
[9]; [21]
  Plant response rating, Mustard, Wild: 0
[10]; [15]
  Radish, Wild plant response rating: 5
[10]; [16]
  Plant response rating, Radish, Wild: 5
[10]; [17]
  Plant response rating, Radish, Wild: 20
[10]; Preemergence, 31 g ai/ha
  Plant response rating (scale of 0 to 100), Radish, Wild: 20
[10]; [18]
  Plant response rating, Radish, Wild: 25
[10]; [19]
  Plant response rating, Radish, Wild: 100
[10]; [20]
  Plant response rating, Radish, Wild: 85
[10]; [21]
  Plant response rating, Radish, Wild: 10
[11]; [22]
  Plant response rating, Waterhemp_RES1: 60
[11]; [13]
  Plant response rating, Waterhemp_RES1: 70
[11]; [14]
  Plant response rating, Waterhemp_RES1: 80
[11]; [23]
  Plant response rating, Waterhemp_RES1: 95
[12]; [22]
  Plant response rating, Waterhemp_RES2: 15
[12]; [13]
  Plant response rating, Waterhemp_RES2: 50
[12]; [14]
  Plant response rating, Waterhemp_RES2: 60
[12]; [23]
  Plant response rating, Waterhemp_RES2: 70
